# Laboratory results as given in patent US12472204B2, “Compound of element acid, which is in allotropic form, which enters into cellular interaction in some bone diseases” (CELAL BAYAR UNIVERSITESI DIGER MERKEZLER MUDURLUGU, priority 2020, dated 2025).
# Key:
# [1] = test system: osteoblast cells where hydroxy-urea is applied (in-vitro brittle bone disease model)
# Method: (§1) The 2nd group has been determined as the boric acid group by adding 0.1 mM boric acid into the osteoblast culture medium. The 3rd group is the ageing group and has been cultured with 1 mM hydroxy-urea to the osteoblast culture medium and has been determined as the experimental brittle bone disease group. The 4th group has been determined as the group where boric acid is applied to the osteogenesis imperfecta model by applying […] boric acid to the cells where ageing model has been formed. Boric acid has been applied to 2nd and 4th groups for 72 hours and group 1 and group 3 have been cultured in their own culture media at the same durations.
# [2] = test system: osteoblast cells where ageing model is formed by hydroxy-urea
# Method: as §1
# [3] = 4th group: osteoblast + 1 mM hydroxy-urea + boric acid, 72 hours
# [4] = after applying boric acid, hydroxy-urea ageing model
structure (smiles),measurement,setting,value
"OB(O)O [boric acid, Boric acid]",cytoplasmic vacuoles,[1]; [3],begin to occur
same,epithelioid structure of osteoblast cells,[1]; [3],preserve their epithelioid structures
same,intercellular vacuoles,[1]; [3],decrease
same,augmentation of osteoblasts and protection of these cells from ageing,[1]; boric acid applied to the in-vitro model,favorable effects
same,cellular morphology,[2]; [4],improved
same,immuno-reactivity of osteocalcin released by osteoblasts,[2]; [4],increases
same,immuno-reactivity of osteonectin released by osteoblasts,[2]; [4],increases
same,proliferation in cells where ageing model is formed by hydroxy-urea,[2]; concluded from Ki-67 immuno-reactivity,triggers proliferation
same,immuno-reactivity of Ki-67 (proliferation marker),[2]; osteoblasts where boric acid is applied,greater
